{"source": "patent US20210177806A1", "about": "“COMBINATION PHARMACEUTICAL, PROPHYLACTIC OR SUPPRESSIVE AGENT FOR DEVELOPMENT OF RESISTANCE TO PYRIMIDINE ANTIMETABOLITE, AND METHOD OF TREATING DISEASE” (FUJIFILM Corporation, priority 2018, published 2021)", "key": {"MDS patients [1]": {"tested_on": "MDS patients", "test": "Administration to MDS patients (Examples 2 to 5)", "format": "in vivo", "conditions": "for effect on the development of resistance to pyrimidine antimetabolite: 28-day cycle", "protocol": "(§1) Compound A is administered to MDS patients (over 18 years of age) at a dose per one time of 400 mg/m^2 twice a day for 14 days. Administration of azacitidine is started on the day when the administration of Compound A is started. Azacitidine is administered subcutaneously or intravenously at a dose of 75 mg/m^2 for 7 days. The treatment cycle consists of 28 days. After the administration for 7 days, the administration is discontinued for 21 days.\nas §1, with “21” for “14”, “days.” for “days. Administration of azacitidine is started on the day when the administration of Compound A is started.”\nas §1, with “time of 300 mg/m^2 twice” for “time of 400 mg/m^2 twice”, “21 days. […] The day of the start of administration of Compound A may be earlier than the day of the start of administration of azacitidine. Furthermore, Compound A may be administered twice a day for 21 days as in Example 3.” for “21 days.”\nas §1, with “time of 200 mg/m^2 twice” for “time of 400 mg/m^2 twice”, “21 days. […] The day of the start of administration of Compound A may be earlier than the day of the start of administration of azacitidine. Furthermore, Compound A may be administered twice a day for 21 days as in Example 3.” for “21 days.”\nFor the MDS patients in Examples 2 to 5, the therapeutic effect is evaluated for the following items in comparison with the outcome of an azacitidine single agent+BSC (Best Supportive Care: Support therapy, transfusion, administration of antibiotics, analgesics, antipyretics, antiemetics, etc. as required) (International Phase III Test “Aza-001”). The period for which the development of resistance to pyrimidine antimetabolite is prevented or suppressed in the above patients is preferably 3 months or more, preferably 4 months or more, preferably 5 months or more, preferably 6 months or more, and preferably 1 year or more."}, "[2]": {"tested_on": "azacitidine-resistant leukemia cell lines", "conditions": "cited from earlier work"}, "[3]": {"tested_on": "intracellular CTP (cytidine triphosphate) in leukemia cells (SKM-1)", "test": "Amount of intracellular CTP in leukemia cells after 4-month exposure", "format": "cell-based", "protocol": "Intracellular CTP (cytidine triphosphate) competes with Aza-CTP (an active metabolite of Aza) and an increased amount of CTP may reduce sensitivity to Aza. […] Then, studies were conducted on the assumption that exposure to Compound A or a salt thereof or a hydrate thereof and Aza for a long time is effective for the recovery or retainment of sensitivity to Aza with the expectation that Compound A or a salt thereof or a hydrate thereof has an inhibitory effect on CTP increase.\nThe result is that a long-term (4 months) exposure of leukemia cells to a combination of Aza and Compound A.¾ hydrate caused a change in Aza sensitivity. […] Thus, treating an untreated MDS patient with a combination of Aza and Compound A or a salt thereof or a hydrate thereof is considered to be effective for maintaining their sensitivity to Aza."}, "SKM-1 leukemia cell line": {"tested_on": "SKM-1 leukemia cell line", "test": "Cell proliferation assay for azacitidine after long-term culture (development of resistance)", "format": "cell-based", "conditions": "for sensitivity to azacitidine (dose-response curve) / development of resistance: Aza group: SKM-1 treated 4 months with azacitidine only, 50 nmol/L to 1.6 mol/L", "protocol": "SKM-1 (National Institute of Biomedical Innovation, Health and Nutrition) was used as leukemia cell line. Cells were cultured in RPMI 1640 medium (Life Technologies) containing 1% penicillin/streptomycin and 10% fetal bovine serum (FBS) in an environment of 37° C., 5% CO2 and saturated water vapor.\nThe respective cultures were subjected to long-term culture. The concentration of azacitidine was 50 nmol/L at the start and was doubled at 2-4 week intervals. When cultured for 2 weeks after the azacitidine concentration had reached […], the treated groups were subjected to an assay for cell proliferation for azacitidine.\nIn the cell proliferation assay, cells were first suspended in a medium so that the number of cells was 111,111 cells/mL, and 90 μL (10,000 cells) each of the resultant was seeded in a 96-well plate (Corning Incorporated) per well. Next, 10 μL of a PBS solution of azacitidine (0, 3, 10, 30, 100 or 300 μmon) was added to the plate, and the cells were cultured in an environment of 37° C., 5% CO2 and saturated water vapor for 72 hours.\nThe relative number of the cancer cells after the above incubation was measured in terms of emission intensity using Cell Titer Glo (Promega Corporation) reagent by a plate reader (Envision, PerkinElmer Inc.). With the number of cells at a concentration of azacitidine of 0 μmol/L as 100% and the emission intensity of the sample to which no cells were added as 0%, the relative value of emission intensity was calculated at each azacitidine concentration. The results of each group were plotted with the azacitidine concentration (mon) on the horizontal axis and the emission intensity (relative value) on the vertical axis.\nAza: SKM-1 cells treated for 4 months with gradual increase in the concentration of azacitidine (50 nmol/L to […]) Aza+A1: SKM-1 cells which were treated in the same manner as in the Aza group and to which Compound A was added at 1 μmon throughout the period of treatment. Aza+A10: SKM-1 cells which were treated in the same manner as in the Aza group and to which Compound A was added at 1 μmon throughout the period of treatment"}, "MDS patients [4]": {"tested_on": "MDS patients", "conditions": "AZA-001 test, cited from earlier work"}}, "note": "“Also recorded” adds a separate entry of the source.", "data": [{"smiles": "NC(=O)c1nc[nH]c1O", "note": "[Compound A, 5-Hydroxy-1H-imidazole-4-carboxamide]", "values": [{"measurement": "effect on the development of resistance to pyrimidine antimetabolite", "setting": "MDS patients [1]; Example 2: Compound A 400 mg/m^2 twice a day for 14 days with azacitidine 75 mg/m^2 for 7 days", "result": "prophylactic or suppressive effect"}, {"measurement": "effect on the development of resistance to pyrimidine antimetabolite", "setting": "MDS patients [1]; Example 3: Compound A 400 mg/m^2 twice a day for 21 days with azacitidine 75 mg/m^2 for 7 days", "result": "prophylactic or suppressive effect"}, {"measurement": "side effects in patients", "setting": "MDS patients [1]; Example 4: Compound A 300 mg/m^2 twice a day for 14 days with azacitidine", "result": "side effects in patients can be reduced"}, {"measurement": "effect on the development of resistance to pyrimidine antimetabolite", "setting": "MDS patients [1]; Example 4: Compound A 300 mg/m^2 twice a day for 14 days with azacitidine 75 mg/m^2 for 7 days", "result": "prophylactic or suppressive effect"}, {"measurement": "side effects in patients", "setting": "MDS patients [1]; Example 5: Compound A 200 mg/m^2 twice a day for 14 days with azacitidine", "result": "side effects in patients can be reduced"}, {"measurement": "effect on the development of resistance to pyrimidine antimetabolite", "setting": "MDS patients [1]; Example 5: Compound A 200 mg/m^2 twice a day for 14 days with azacitidine 75 mg/m^2 for 7 days", "result": "prophylactic or suppressive effect"}, {"measurement": "cell growth inhibitory activity / cross resistance", "setting": "[2]", "result": "cell growth inhibitory activity without cross resistance"}, {"measurement": "amount of intracellular CTP", "setting": "[3]; Aza and Compound A combined from the start of the treatment", "result": "kept at a level similar to that in untreated cells"}, {"measurement": "effect on the development of resistance to Aza", "setting": "SKM-1 leukemia cell line; 4-month exposure of naive SKM-1 to Aza and Compound A (1 mon or 10 μmon)", "result": "prophylactic or suppressive effect; also recorded: almost complete elimination of the development of resistance to Aza"}, {"measurement": "sensitivity to azacitidine (dose-response curve)", "setting": "SKM-1 leukemia cell line; Aza+A1 group: treated as Aza group plus Compound A at 1 μmon throughout", "result": "almost the same as that of the control group"}, {"measurement": "sensitivity to azacitidine (dose-response curve)", "setting": "SKM-1 leukemia cell line; Aza+A10 group: treated as Aza group plus Compound A at 10 mon throughout", "result": "almost the same as that of the control group"}]}, {"smiles": "Nc1ncn([C@@H]2O[C@H](CO)[C@@H](O)[C@H]2O)c(=O)n1", "note": "[azacitidine, 4-amino-1-β-D-ribofuranosyl-1,3,5-triazin-2(1H)-one]", "values": [{"measurement": "2-year survival rate", "setting": "MDS patients [4]", "result": 50.8, "unit": "%"}, {"measurement": "Hematologic response rate according to IWG criteria (2000 edition)", "setting": "MDS patients [4]", "result": 6.7, "unit": "%"}, {"measurement": "Hematological improvement according to IWG criteria (2000 edition)", "setting": "MDS patients [4]", "result": 49.2, "unit": "%"}, {"measurement": "Median time of AML transformation", "setting": "MDS patients [4]", "result": 20.7, "unit": "months"}, {"measurement": "Median time of AML transformation or death", "setting": "MDS patients [4]", "result": 13.0, "unit": "months"}, {"measurement": "Survival (median)", "setting": "MDS patients [4]", "result": 24.5, "unit": "months"}, {"measurement": "patients who achieved platelet transfusion-independence from dependence", "setting": "MDS patients [4]; no platelet transfusions for consecutive 56 days or more", "result": 42.1, "unit": "%"}, {"measurement": "patients who achieved red blood cell transfusion-independence from dependence", "setting": "MDS patients [4]; no red blood cell transfusions for consecutive 56 days or more", "result": 45.0, "unit": "%"}, {"measurement": "amount of intracellular CTP", "setting": "[3]; 4-month exposure to only Aza", "result": "an increase in the amount of intracellular CTP"}, {"measurement": "sensitivity to azacitidine (dose-response curve) / development of resistance", "setting": "SKM-1 leukemia cell line", "result": "the dose-response curve shifted to the right"}, {"measurement": "sensitivity to azacitidine (dose-response curve) / development of resistance", "setting": "SKM-1 leukemia cell line; listed as Aza", "result": "resulting in the development of resistance"}, {"measurement": "emission intensity (relative value) / number of viable cells", "setting": "SKM-1 leukemia cell line; SKM-1, all groups, azacitidine 72 hours, Cell Titer Glo", "result": "decreased azacitidine concentration-dependently"}]}]}
